Measurements as given in patent EP2431033A1, “Dronedarone for preventing cardiovascular hospitalization or mortality in patients with lone atrial fibrillation” (SANOFI, priority 2010, dated 2012).

Assays:
[1] = system: patients with lone AF; test: Post-hoc analysis of EURIDIS, ADONIS and ATHENA trials, patients with lone AF; format: in vivo; conditions: for Number of patients with endpoint (lone AF): first cardiovascular hospitalization or death from any cause
From the text: (§1) The present invention is illustrated by data from a post-hoc analysis of patients with lone atrial fibrillation enrolled in the clinical trials called EURIDIS, ADONIS and ATHENA trials with the following endpoints: • cardiovascular hospitalization or death from any cause • cardiovascular hospitalization • all cause mortality • cardiovascular mortality
(§2) Individual data from patients with lone AF enrolled in the EURIDIS, ADONIS and ATHENA trials were entered in a central database. (SAS version 8.2). The institutional review board at each site approved the study, and all patients gave written informed consent for taking part in the studies. In short, common enrolment criterion for these studies was the presence of paroxysmal or persistent AF. Patients with permanent AF or with unstable hemodynamic conditions were excluded from participation.
(§3) Lone AF was defined as AF occurring in patients without structural heart disease or arterial hypertension hypertension (not treated with blood pressure lowering medications), and without extracardiac diseases associated with AF (i.e. thyroid disorders).
(§4) In all 3 studies, patients were randomly assigned to double-blind treatment with dronedarone 400 mg BID or matching placebo. Hospitalisation was defined as at least one overnight stay. The main outcome measure of this post-hoc analysis was the time to the composite endpoint of first hospitalization for cardiovascular reasons or death from any cause, and their individual components.
(§5) Baseline parameters of patients with and without lone AF were compared with logistic regression analysis for qualitative and an ANOVA test for quantitative variables. All outcomes were estimated with the use of the Kaplan-Meier method and compared by means of the log-rank test. […] All P values are two-tailed, and statistical significance was assumed at a p-value of 0.05 or smaller.
(§6) The results obtained in this trial were analysed by the Kaplan Meier method for the figures, and the relative risk (RR) was estimated using Cox's proportional-effect regression model.
(§7) The relative risk (RR) is the ratio of the rates of occurrence of a hospitalization or of a death among the patients on dronedarone, relative to the patients on placebo.

[2] = system: patients without lone AF; test: Post-hoc analysis of EURIDIS, ADONIS and ATHENA trials, patients without lone AF; format: in vivo
From the text: as §1, §2, §3, §4, §5, §6, §7

[3] = first cardiovascular hospitalization, patients with lone AF at baseline, 400mg BID
[4] = patients with lone AF, compared to placebo, x = 1-relative risk
[5] = first cardiovascular hospitalization, patients without lone AF at baseline, 400mg BID

CCCCc1oc2ccc(NS(C)(=O)=O)cc2c1C(=O)c1ccc(OCCCN(CCCC)CCCC)cc1 [Dronedarone, 2-n-Butyl-3-[4-(3-di-n-butylaminopropoxy)benzoyl]-5-methylsulphonamidobenzofuran]
Number of patients with endpoint (lone AF) ([1]; ADONIS, 400mg BID, N=64): 1 (N=64) | Number of patients with endpoint (lone AF) ([1]; ATHENA, 400mg BID, N=95): 26 (N=95) | Number of patients with endpoint (lone AF) ([1]; EURIDIS, 400mg BID, N=81): 7 (N=81) | Number of patients with endpoint (lone AF) ([1]; Lone AF population (3 studies pooled), 400mg BID, N=240): 34 (N=240) | Cumulative incidence of events at 1 year [1, 3]: 0.113 | Cumulative incidence of events at 2 years [1, 3]: 0.195 | Cumulative incidence of events at 6 months [1, 3]: 0.057 | Relative risk ([1]; first cardiovascular hospitalization, patients with lone AF at baseline, vs placebo, cause-specific Cox regression model adjusted on studies): 0.543 | risks for adverse events between placebo and dronedarone ([1]; independent from the AF type): No difference | cardiovascular hospitalisations for AF or other supraventricular arrhythmias ([1]; lone AF, dronedarone group, out of all cardiovascular hospitalisations): 16 of 30 | All-cause mortality (HR) ([1]; lone AF, dronedarone vs placebo, 95%CI=0.31-3.43, p=0.885): 1.02 | cardiovascular hospitalizations alone, HR ([1]; patients with lone AF, compared to placebo, 95%CI=0.34-0.87, p=0.004): 0.54 | cardiovascular hospitalizations or death, hazard ratio (HR) ([1]; patients with lone AF, compared to placebo, 95%CI=0.36-0.88, p=0.004): 0.56 | reduction in cardiovascular hospitalizations alone [1, 4]: 46% | reduction of cardiovascular hospitalizations or death [1, 4]: 44% | drug discontinuation rate ([1]; patients with lone AF, dronedarone arm vs placebo arm): similar | Cumulative incidence of events at 1 year [2, 5]: 0.208 | Cumulative incidence of events at 2 years [2, 5]: 0.321 | Cumulative incidence of events at 6 months [2, 5]: 0.135 | Relative risk ([2]; first cardiovascular hospitalization, patients without lone AF at baseline, vs placebo, cause-specific Cox regression model adjusted on studies): 0.758 | reduction of the risk of CV hospitalizations or death ([2]; patients with other forms of AF): 23% | drug discontinuation ([2]; patients with other forms of AF, dronedarone arm vs placebo arm): more often
